Measured values from patent US9849193B2, “Nanoparticles for drug delivery” (University of Louisville Research Foundation, Inc., priority 2013, dated 2017).

Assay: Heat-induced release of drug surrogate (alcohol 11 or amine 12) from linkers in methanol, HPLC quantification
Format: physicochemical
Details: for % release after heating (55° C.) at time (h) 0.25 / % release after heating (55° C.) at time (h) 0.5 / % release after heating (55° C.) at time (h) 0.75 / % release after heating (55° C.) at time (h) 1 / % release after heating (55° C.) at time (h) 2 / % release after heating (55° C.) at time (h) 3 / % release after heating (55° C.) at time (h) 24 h / % release at rt, 3.5 h: release of alcohol 11, mean ± SD, n = 3; for % release after heating (55° C.) at time (h) 0.25 / % release after heating (55° C.) at time (h) 0.5 / % release after heating (55° C.) at time (h) 0.75 / % release after heating (55° C.) at time (h) 1 / % release after heating (55° C.) at time (h) 2 / % release after heating (55° C.) at time (h) 3 / % release after heating (55° C.) at time (h) 24 h / Heat-induced release of 11 or 12 (result in words, spans all time columns): methanol ca. 0.01 M; for % release after heating (55° C.) at time (h) 0.25: 0.25 h; for % release after heating (55° C.) at time (h) 0.5: 0.5 h; for % release after heating (55° C.) at time (h) 0.75: 0.75 h; for % release after heating (55° C.) at time (h) 1: 1 h; for % release after heating (55° C.) at time (h) 2: 2 h; for % release after heating (55° C.) at time (h) 3: 3 h; for % release at rt, 3.5 h: room temperature control; for Heat-induced release of 11 or 12 (result in words, spans all time columns): 55° C. up to 24 h and rt 3.5 h
Protocol: Methanol (MeOH) was used as a solvent to provide a protic solvent capable of hydrogen bonding. The amine-containing linker compounds, formed on Boc-deprotection with basic work-up (compounds 4.1-3, 8.1-2, 9, 10), were diluted with MeOH (2 mL, ˜0.01 M). An aliquot was removed to serve as a room temperature control. Heat was applied to the MeOH solutions using an oil bath. The temperature was set at 55° C., and the solutions were heated for a total of 24 h. Aliquots were taken at t=0.25, 0.50, 0.75, 1, 2, 3, and 24 h into the reaction. On sampling, the aliquots were, immediately stored at −5° C. On completion of the experiment, the samples were warmed to room temperature, filtered and dried under reduced pressure (3.5 h duration) and then returned to −5° C. Each sample was then removed individually from the freezer and diluted with 400 μL CH2Cl2 before injecting 50 μL into an HPLC fitted with a normal phase silica column (Waters Nova-Pak HR Silica, 6 μm, 60 Å, 3.9×300 mm prep column; 1% MeOH in CH2Cl2 with 0.1% Et3N). HPLC analysis enabled quantification of released 11 or 12. Schemes 3 and 4 depict the intramolecular cyclization processes to release the drug surrogate (e.g., 11 or 12). […] FIG. 12 graphically illustrates the heat-induced release of alcohol 11 (Table 1). The substrates were heated as methanol solutions (ca. 0.01 M) at 55° C. for the indicated times as described above.

| % release after heating (55° C.) at time (h) 0.25 [%] | % release after heating (55° C.) at time (h) 0.5 [%] | % release after heating (55° C.) at time (h) 0.75 [%] | % release after heating (55° C.) at time (h) 1 [%] | % release after heating (55° C.) at time (h) 2 [%] | % release after heating (55° C.) at time (h) 3 [%] | % release after heating (55° C.) at time (h) 24 h [%] | % release at rt, 3.5 h [%] | Heat-induced release of 11 or 12 (result in words, spans all time columns) | SMILES |
| --- | --- | --- | --- | --- | --- | --- | --- | --- | --- |
| 23.5 ± 1.9 | 28.9 ± 1.7 | 32.4 ± 4.0 | 36.7 ± 4.8 | 48.3 ± 5.7 | 57.0 ± 6.9 | 68.9 ± 3.0 | 18.8 ± 2.3 | – | C=CCNCCOC(=O)OCCc1c2ccccc2cc2ccccc12 [Compound 8.1, 2-(allylamino)ethyl(2-(anthracen-9-yl)ethyl) carbonate] |
| 12.0 ± 0.8 | 14.1 ± 0.7 | 16.4 ± 1.0 | 18.0 ± 0.7 | 24.8 ± 1.1 | 29.0 ± 1.0 | 62.1 ± 5.6 | 9.6 ± 1.1 | – | C=CCNCCCOC(=O)OCCc1c2ccccc2cc2ccccc12 [Compound 8.2, 3-(allylamino)propyl(2-(anthracen-9-yl)ethyl) carbonate] |
| 2.1 ± 1.6 | 1.8 ± 1.9 | 2.1 ± 2.2 | 2.1 ± 1.8 | 3.1 ± 2.9 | 3.6 ± 3.0 | 10.4 ± 3.8 | 1.7 ± 2.0 | – | C=CCNCCCCCC(=O)OCCc1c2ccccc2cc2ccccc12 [Compound 4.3, 2-(anthracen-9-yl)ethyl 6-(allylamino)hexanoate] |
| 20.9 ± 1.9 | 21.6 ± 3.5 | 23.0 ± 3.0 | 25.0 ± 2.1 | 30.5 ± 1.3 | 36.5 ± 1.2 | 75.7 ± 3.2 | 17.0 ± 4.5 | – | C=CCNCCCCC(=O)OCCc1c2ccccc2cc2ccccc12 [Compound 4.2, 2-(anthracen-9-yl)ethyl 5-(allylamino)pentanoate] |
| 24.6 ± 3.1 | 29.2 ± 1.7 | 33.4 ± 2.5 | 36.6 ± 2.6 | 44.4 ± 3.7 | 50.2 ± 4.2 | 94.0 ± 1.8 | 20.2 ± 3.1 | – | C=CCNCCCC(=O)OCCc1c2ccccc2cc2ccccc12 [Compound 4.1, 2-(anthracen-9-yl)ethyl 4-(allylamino)butanoate] |

The next lines start with the molecule.

| SMILES | % release after heating (55° C.) at time (h) 0.25 [%] | % release after heating (55° C.) at time (h) 0.5 [%] | % release after heating (55° C.) at time (h) 0.75 [%] | % release after heating (55° C.) at time (h) 1 [%] | % release after heating (55° C.) at time (h) 2 [%] | % release after heating (55° C.) at time (h) 3 [%] | % release after heating (55° C.) at time (h) 24 h [%] | % release at rt, 3.5 h [%] | Heat-induced release of 11 or 12 (result in words, spans all time columns) |
| --- | --- | --- | --- | --- | --- | --- | --- | --- | --- |
| C=CCNCCC(C)(C)CCC(=O)OCCc1c2ccccc2cc2ccccc12 [Compound 20, 2-(anthracen-9-yl)ethyl 6-(allylamino)-4,4-dimethylhexanoate] | 2.0 ± 0.1 | 2.2 ± 0.1 | 2.7 ± 0.1 | 3.3 ± 0.4 | 4.1 ± 0.3 | 5.2 ± 0.8 | 24.7 ± 3.9 | 1.8 ± 0.2 | – |
| C=CCNCCCC(=O)NCCc1c2ccccc2cc2ccccc12 [Compound 9, 4-(allylamino)-N-(2-(anthracen-9-yl)ethyl)butanamide] | – | – | – | – | – | – | – | – | no reaction |
| C=CCNCCC(C)(C)COC(=O)OCCc1c2ccccc2cc2ccccc12 [Compound 23, 4-(allylamino)-2,2-dimethylbutyl(2-(anthracen-9-yl)ethyl) carbonate] | 1.8 ± 0.4 | 2.3 ± 0.5 | 2.9 ± 0.1 | 4.0 ± 0.3 | 5.7 ± 1.0 | 7.6 ± 0.3 | 36.6 ± 0.3 | 0.7 ± 0.1 | – |
| C=CCNCCNC(=O)OCCc1c2ccccc2cc2ccccc12 [Compound 10, 2-(anthracen-9-yl)ethyl(2-(allylamino)ethyl)carbamate] | – | – | – | – | – | – | – | – | no reaction |
